For orientation: EC50 means the midpoint of the concentration-response curve. Read a high EC50 as lower potency in that assay. As usually defined, the inhibition is the change of the read-out against control, counted positive when it falls.

Read-outs that look alike come from different tables or passages of the source.

In one experiment the target is T1, Nurr1 (Homo sapiens, UniProt P43354).
T1 construct: expressed in transfected cells; host or cells: HEK293T
The experiment is described as follows: Gal4-Nurr1 hybrid reporter gene assay. It counts as cell-based. The note with it: for EC50 / max. activation (Nurr1): Gal4-Nurr1 hybrid reporter gene assay; for EC50: HEK293T cells, mean ± S.E.M., n ≥ 3; for max. activation (Nurr1): fold activation vs untreated control; for selectivity index DHODH/Nurr1: IC50(DHODH) / EC50(Nurr1); for efficacy_NR4A2: supplementary csv, max. activation in %. In general terms: Reporter assays use an easily measured gene product as a stand-in for the process of interest.

The next experiment addresses T2, DHODH (Homo sapiens, UniProt Q02127).
T2 construct: using an N-terminally truncated recombinant DHODH enzyme as described previously[20]
Put plainly: DHODH inhibition colorimetric assay on recombinant human protein. The class given is biochemical.

The mark [1] stands for this setting: recombinant human DHODH, colorimetric, mean ± S.E.M., n ≥ 3, read-out: IC50 (DHODH).

T2 sequence (Q02127 31-395): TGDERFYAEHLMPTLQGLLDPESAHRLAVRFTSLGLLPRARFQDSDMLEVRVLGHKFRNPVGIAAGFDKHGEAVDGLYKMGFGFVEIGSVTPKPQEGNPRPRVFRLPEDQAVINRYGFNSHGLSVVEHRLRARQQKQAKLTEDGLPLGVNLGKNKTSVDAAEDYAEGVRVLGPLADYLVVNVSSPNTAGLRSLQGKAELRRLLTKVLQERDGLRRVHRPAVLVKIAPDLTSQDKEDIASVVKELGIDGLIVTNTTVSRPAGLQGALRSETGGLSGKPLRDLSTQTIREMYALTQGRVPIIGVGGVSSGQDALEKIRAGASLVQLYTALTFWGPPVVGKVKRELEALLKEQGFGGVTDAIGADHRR
T1 sequence (P43354 360-595 limits assumed): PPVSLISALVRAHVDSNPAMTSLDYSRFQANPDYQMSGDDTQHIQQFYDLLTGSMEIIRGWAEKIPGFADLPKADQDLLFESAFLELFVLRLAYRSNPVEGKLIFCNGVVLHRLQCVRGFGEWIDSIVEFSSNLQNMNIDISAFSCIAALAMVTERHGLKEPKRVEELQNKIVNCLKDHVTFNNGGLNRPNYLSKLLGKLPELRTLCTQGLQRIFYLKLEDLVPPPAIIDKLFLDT

In the case of `[2H]C([2H])([2H])Oc1cccc(-c2c(F)c(F)c(NC(=O)c3ccsc3S(N)(=O)=O)c(F)c2F)c1` [compound 13, Sulfamoyl-N-{2,3,5,6-tetrafluoro-3'-(^2H3)methoxy-[1,1'-biphenyl]-4-yl}thiophene-3-carboxamide], on Nurr1, it took 1100 ± 100 nM to reach a half-maximal effect (EC50), the “max. activation (Nurr1)” value is recorded as 2.09 ± 0.08 fold, the “selectivity index DHODH/Nurr1” value turned out to be 3.0 and the efficacy_NR4A2 amounted to 209%. Besides, the IC50 at DHODH (setting [1]) worked out at 3330 ± 60 nM. The IC50 at DHODH (supplementary csv, read-out: IC50_DHODH) was 3300 nM.
Consider `[2H]C([2H])([2H])Oc1cccc(-c2c(F)c(F)c(NC(=O)c3ccsc3S(=O)(=O)NC(C)=O)c(F)c2F)c1` [compound 14, 2-(N-Acetylsulfamoyl)-N-{2,3,5,6-tetrafluoro-3’-(^2H3)methoxy-[1,1'-biphenyl]-4-yl}thiophene-3-carboxamide], for which, at Nurr1, the EC50 turned out to be 900 ± 100 nM, the “max. activation (Nurr1)” value stood at 1.89 ± 0.06 fold, the “selectivity index DHODH/Nurr1” value was 4.4 and the efficacy_NR4A2 came out at 189%. Also, the IC50 on DHODH (setting [1]) came out at 4000 ± 1000 nM.
As for `[2H]C([2H])([2H])Oc1cccc(-c2c(F)c(F)c(NC(=O)c3ccsc3S(C)(=O)=O)c(F)c2F)c1` [compound 15, 2-(Methylsulfonyl)-N-{2,3,5,6-tetrafluoro-3’-(^2H3)methoxy-[1,1'-biphenyl]-4-yl}thiophene-3-carboxamide], on Nurr1, it took 1200 ± 100 nM to reach a half-maximal effect (EC50), the “max. activation (Nurr1)” value is 2.05 ± 0.08 fold, the “selectivity index DHODH/Nurr1” value is ~100 and the efficacy_NR4A2 was 205%. In addition, the inhibition at 100 µM at DHODH (recombinant human DHODH) worked out at 49 ± 1%.
Regarding `[2H]C([2H])([2H])Oc1cccc(-c2c(F)c(F)c(NC(=O)c3ccsc3S(C)(=N)=O)c(F)c2F)c1` (centres unmarked) [compound 16, 2-(S-Methylsulfonimidoyl)-N-{2,3,5,6-tetrafluoro-3’-(^2H3)methoxy-[1,1'-biphenyl]-4-yl}thiophene-3-carboxamide], on Nurr1, the response was half-maximal at 1200 ± 200 nM (EC50), the “max. activation (Nurr1)” value came to 2.17 ± 0.11 fold, the “selectivity index DHODH/Nurr1” value was ~25 and the efficacy_NR4A2 came to 217%. Also, the inhibition at 100 µM at DHODH (recombinant human DHODH) is 76 ± 6%.
Turning to `[2H]C([2H])([2H])Oc1cccc(-c2c(F)c(F)c(NC(=O)c3ccsc3-c3c(O)c(=O)c3=O)c(F)c2F)c1` [compound 17, 2-(2-Hydroxy-3,4-dioxocyclobut-1-en-1-yl)-N-{2,3,5,6-tetrafluoro-3’-(^2H3)methoxy-[1,1'-biphenyl]-4-yl}thiophene-3-carboxamide], on Nurr1, a half-maximal response (EC50) required 100 ± 50 nM, the “max. activation (Nurr1)” value was determined as 1.97 ± 0.43 fold, the “selectivity index DHODH/Nurr1” value was determined as 7 and the efficacy_NR4A2 turned out to be 197%. Further, on DHODH (setting [1]), the IC50 stood at 700 ± 500 nM.
As to `[2H]C([2H])([2H])Oc1cccc(-c2c(F)c(F)c(NC(=O)c3ccsc3-c3noc(=O)[nH]3)c(F)c2F)c1` [compound 18, 2-(5-Oxo-4,5-dihydro-1,2,4-oxadiazol-3-yl)-N-{2,3,5,6-tetrafluoro-3’-(^2H3)methoxy-[1,1'-biphenyl]-4-yl}thiophene-3-carboxamide], on Nurr1, the EC50 worked out at 50 ± 10 nM, the “max. activation (Nurr1)” value is 1.86 ± 0.11 fold, the “selectivity index DHODH/Nurr1” value was determined as 13 and the efficacy_NR4A2 is given as 186%. In addition, the IC50 on DHODH (setting [1]) is 660 ± 80 nM.
For `[2H]C([2H])([2H])Oc1cccc(-c2c(F)c(F)c(NC(=O)c3ccsc3-c3nn[nH]n3)c(F)c2F)c1` [compound 19, N-{2,3,5,6-Tetrafluoro-3’-(^2H3)methoxy-[1,1'-biphenyl]-4-yl}-2-(2H-tetrazol-5-yl)thiophene-3-carboxamide], in that order: 21 ± 2 nM, 2.14 ± 0.11 fold, 28, 214% and 600 ± 200 nM.
Taken in the same sequence, the figures for `[2H]C([2H])([2H])Oc1cccc(-c2c(F)c(F)c(NC(=O)c3cscc3-c3noc(=O)[nH]3)c(F)c2F)c1` [compound 21, 4-(5-Oxo-4,5-dihydro-1,2,4-oxadiazol-3-yl)-N-{2,3,5,6-tetrafluoro-3’-(^2H3)methoxy-[1,1'-biphenyl]-4-yl}thiophene-3-carboxamide] were 30 ± 10 nM, 2.2±0.1 fold, 13, 220% and 400 ± 60 nM.
Regarding `[2H]C([2H])([2H])Oc1cccc(-c2c(F)c(F)c(NC(=O)c3cscc3-c3nn[nH]n3)c(F)c2F)c1` [compound 22, N-{2,3,5,6-Tetrafluoro-3’-(^2H3)methoxy-[1,1'-biphenyl]-4-yl}-4-(2H-tetrazol-5-yl)thiophene-3-carboxamide], at Nurr1, the EC50 was found to be 11 ± 2 nM, the “max. activation (Nurr1)” value is reported as 2.5±0.2 fold, the “selectivity index DHODH/Nurr1” value was determined as 3.9 and the efficacy_NR4A2 amounted to 250%. Further, on DHODH (setting [1]), the IC50 came to 43 ± 6 nM.
Turning to `[2H]C([2H])([2H])Oc1cccc(-c2c(F)c(F)c(NC(=O)c3cscc3-c3noc(=S)[nH]3)c(F)c2F)c1` [compound 23, N-{2,3,5,6-Tetrafluoro-3’-(^2H3)methoxy-[1,1'-biphenyl]-4-yl}-4-(5-thioxo-4,5-dihydro-1,2,4-oxadiazol-3-yl)thiophene-carboxamide], at Nurr1, the EC50 worked out at 36 ± 3 nM, the “max. activation (Nurr1)” value is reported as 1.77±0.04 fold, the “selectivity index DHODH/Nurr1” value is on record as 1.7 and the efficacy_NR4A2 is 177%. In addition, on DHODH (setting [1]), the IC50 amounted to 62 ± 4 nM.
On to `[2H]C([2H])([2H])Oc1cccc(-c2c(F)c(F)c(NC(=O)c3cscc3-c3nc(=O)on3C)c(F)c2F)c1` [compound 24, 4-(2-Methyl-5-oxo-2,5-dihydro-1,2,4-oxadiazol-3-yl)-N-{2,3,5,6-tetrafluoro-3’-(^2H3)methoxy-[1,1'-biphenyl]-4-yl}thiophene-3-carboxamide], for which, on Nurr1, the EC50 came out at 2600 ± 300 nM, the “max. activation (Nurr1)” value came out at 1.9±0.2 fold, the “selectivity index DHODH/Nurr1” value stood at 4.2 and the efficacy_NR4A2 came to 190%. Also, the IC50 on DHODH (setting [1]) was 11100 ± 600 nM.
As for `[2H]C([2H])([2H])Oc1cccc(-c2c(F)c(F)c(NC(=O)c3cscc3-c3nc(=S)on3C)c(F)c2F)c1` [compound 25, 4-(2-Methyl-5-thioxo-2,5-dihydro-1,2,4-oxadiazol-3-yl)-N-{2,3,5,6-tetrafluoro-3’-(^2H3)methoxy-[1,1'-biphenyl]-4-yl}thiophene-3-carboxamide], on Nurr1, the half-maximal effective concentration (EC50) is 900 ± 100 nM, the “max. activation (Nurr1)” value amounted to 2.3±0.2 fold, the “selectivity index DHODH/Nurr1” value is recorded as >100 and the efficacy_NR4A2 is given as 230%. Besides, the inhibition at 100 µM at DHODH (recombinant human DHODH) stood at 40 ± 8%.
Turning to `[2H]C([2H])([2H])Oc1cccc(-c2c(F)c(F)c(NC(=O)c3cscc3-c3n[nH]c(=O)o3)c(F)c2F)c1` [compound 26, 4-(5-Oxo-4,5-dihydro-1,3,4-oxadiazol-2-yl)-N-{2,3,5,6-tetrafluoro-3’-(^2H3)methoxy-[1,1'-biphenyl]-4-yl}thiophene-3-carboxamide], at Nurr1, a half-maximal response (EC50) required 17 ± 2 nM, the “max. activation (Nurr1)” value is given as 1.8±0.1 fold, the “selectivity index DHODH/Nurr1” value is 5.9 and the efficacy_NR4A2 stood at 180%. For the same molecule, the IC50 at DHODH (setting [1]) was found to be 100 ± 10 nM.
Taken in the same sequence, the figures for `[2H]C([2H])([2H])Oc1cccc(-c2c(F)c(F)c(NC(=O)c3cscc3-c3n[nH]c(=S)o3)c(F)c2F)c1` [compound 27, N-(2,3,5,6-Tetrafluoro-3’-(^2H3)methoxy-[1,1'-biphenyl]-4-yl)-4-{5-thioxo-4,5-dihydro-1,3,4-oxadiazol-2-yl}thiophene-3-carboxamide] were 160 ± 50 nM, 1.7±0.1 fold, 6.0, 170% and 960 ± 90 nM.
In the case of `[2H]C([2H])([2H])Oc1cccc(-c2c(F)c(F)c(NC(=O)c3cscc3C3=NOS(=O)N3)c(F)c2F)c1` (centres unmarked) [compound 28, 4-(2-Oxido-3H-1,2,3,5-oxathiadiazol-4-yl)-N-{2,3,5,6-tetrafluoro-3’-(^2H3)methoxy-[1,1'-biphenyl]-4-yl}thiophene-3-carboxamide], at Nurr1, a half-maximal response (EC50) required 39 ± 5 nM, the “max. activation (Nurr1)” value is 2.4±0.1 fold, the “selectivity index DHODH/Nurr1” value was 30 and the efficacy_NR4A2 worked out at 240%. The IC50 on DHODH (setting [1]) was found to be 1200 ± 200 nM.
Consider `[2H]C([2H])([2H])Oc1cccc(-c2c(F)c(F)c(NC(=O)C3=C(C(=O)O)COC3)c(F)c2F)c1` [compound 29], for which, at Nurr1, the “max. activation (Nurr1)” value is 2.5±0.1 fold and the efficacy_NR4A2 was 250%.
Regarding `[2H]C([2H])([2H])Oc1cccc(-c2c(F)c(F)c(NC(=O)C3=C(c4nn[nH]n4)COC3)c(F)c2F)c1` [compound 30, N-{2,3,5,6-Tetrafluoro-3’-(^2H3)methoxy-[1,1'-biphenyl]-4-yl}-4-(2H-tetrazol-5-yl)-2,5-dihydrofuran-3-carboxamide], at Nurr1, the “Nurr1 preference/selectivity over DHODH” value is given as 14 fold, the concentration giving a half-maximal response (EC50) came to 220 nM, the “max. activation (Nurr1)” value is 2.0±0.2 fold and the “selectivity index DHODH/Nurr1” value stood at 13.6. The molecule also displayed an efficacy_NR4A2 on Nurr1 of 200%. The IC50 on DHODH (setting [1]) stood at 3000 ± 1000 nM.
Consider `[2H]C([2H])([2H])Oc1cccc(-c2c(F)c(F)c(NC(=O)c3ccccc3-c3nn[nH]n3)c(F)c2F)c1` [compound 31, N-{2,3,5,6-Tetrafluoro-3’-(^2H3)methoxy-[1,1'-biphenyl]-4-yl}-2-(2H-tetrazol-5-yl)benzamide], for which, on Nurr1, the midpoint of the response, the EC50, lay at 140 ± 10 nM; the “max. activation (Nurr1)” value worked out at 1.9±0.1 fold; the “selectivity index DHODH/Nurr1” value was determined as 1.9; the efficacy_NR4A2 is given as 190%. For the same molecule, at DHODH (setting [1]), the IC50 is 260 ± 40 nM.

Values taken from paper PMC7617969, “Carboxylic Acid Bioisosteres Boost Nurr1 Agonist Selectivity” (Journal of medicinal chemistry, 2025).
